Measured values published in patent US5387602A, “1.5-diphenyl-3-(N-hydroxycarbamoyloxyalkyl)pyrazoles” (Ortho Pharmaceutical Corporation, priority 1993, dated 1995).

Target: T1, 5-LO in intact RBL-1 cells (Rattus norvegicus, UniProt P12527)
T1 construct: 5-LO and CO in intact RBL-1 cells; endogenous in cells; host or cells: RBL-1 (rat basophilic leukemia cells), intact
T1 sequence (P12527 1-673): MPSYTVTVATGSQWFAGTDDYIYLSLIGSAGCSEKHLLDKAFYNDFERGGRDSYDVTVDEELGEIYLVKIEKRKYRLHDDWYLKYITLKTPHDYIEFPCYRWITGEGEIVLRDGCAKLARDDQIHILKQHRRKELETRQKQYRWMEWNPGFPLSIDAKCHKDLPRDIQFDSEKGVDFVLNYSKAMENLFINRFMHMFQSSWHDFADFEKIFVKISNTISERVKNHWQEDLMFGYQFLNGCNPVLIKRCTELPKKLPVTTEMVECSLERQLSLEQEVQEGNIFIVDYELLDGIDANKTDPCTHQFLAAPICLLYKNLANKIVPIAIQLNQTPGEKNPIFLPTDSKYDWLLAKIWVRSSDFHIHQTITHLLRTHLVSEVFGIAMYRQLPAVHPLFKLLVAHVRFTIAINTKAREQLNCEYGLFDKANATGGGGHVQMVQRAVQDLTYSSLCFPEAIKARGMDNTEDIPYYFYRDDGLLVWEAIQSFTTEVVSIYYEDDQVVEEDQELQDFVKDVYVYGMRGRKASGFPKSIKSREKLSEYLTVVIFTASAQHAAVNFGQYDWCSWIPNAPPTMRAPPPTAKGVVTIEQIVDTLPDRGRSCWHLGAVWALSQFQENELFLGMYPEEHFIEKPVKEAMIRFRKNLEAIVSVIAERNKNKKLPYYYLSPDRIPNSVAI
Assay: Procedure III: inhibition of 5-LO in intact RBL-1 cells
Format: cell-based
Procedure: The ability to inhibit 5-LO and CO in intact RBL-1 cells was also evaluated. RBL-1 cells were maintained in culture in minimal essential medium (Bio*Whittaker, Walkersville, Md.), containing 12.5% fetal calf serum, 10 mg/mL streptomycin, 10 I.U./mL penicillin G, […] gentamycin and 2 mM L-glutamine (Bio*Whittaker, Walkersville, Md.). Cells were collected by centrifugation, washed once in HBSS, and resuspended at a concentration of 1×10^5 cells/mL. Cells were incubated in the presence of vehicle or drug then centrifuged at 800×g for 10 minutes at 4° C. The supernatant was removed by aspiration and the cells were resuspended in 0.5 mL of HBSS. The reaction was started by the addition of 20 μg/mL of calcium ionophore A-23187 (mixed calcium and magnesium salts, Calbiochem, La Jolla, Calif.) and allowed to proceed for 15 minutes, then stopped by plunging the tubes into a slush ice bath. The conversion of AA to 5-LO products was initiated by the addition of 10 μL (50 uCi) of 1-^14 C-AA. Products were isolated by acidification and extraction, followed by thin layer chromatography analysis as described above. Radioactive areas corresponding to authentic 5-LO and CO products were quantitated by the Bioscan 2000 Imaging System.
In the following tables, the superscripts indicate the number of experiments and, unless otherwise stated, the dose at which % inhibition is reported is 3 MPK.

IC50	SMILES
10.6 µM	COc1ccc(-n2nc(COC(=O)N(O)C(C)C)cc2-c2ccc(Cl)cc2)cc1 [1-C]
25.9 µM	COc1ccc(-n2nc(COC(=O)NO)c(Br)c2-c2ccc(Cl)cc2)cc1 [1-D]
1.21 µM	COc1ccc(-n2nc(COC(=O)N(C)O)c(Br)c2-c2ccc(Cl)cc2)cc1 [1-E]
15.9 µM	COc1ccc(-n2nc(COC(=O)NO)c(Cl)c2-c2ccc(Cl)cc2)cc1 [1-G]
2 µM	COc1ccc(-n2nc(COC(=O)N(C)O)c(Cl)c2-c2ccc(Cl)cc2)cc1 [1-H]
2.35 µM	COc1ccc(-n2nc(COC(=O)N(O)C(C)C)c(Cl)c2-c2ccc(Cl)cc2)cc1 [1-I]
26 µM	COc1ccc(-n2nc(COC(=O)NO)cc2-c2ccc(C)cc2)cc1 [1-J]
21.5 µM	COc1ccc(-n2nc(COC(=O)NO)c(Br)c2-c2ccc(C)cc2)cc1 [1-M]
3.46 µM	COc1ccc(-n2nc(COC(=O)N(C)O)c(Br)c2-c2ccc(C)cc2)cc1 [1-N]
5.12 µM	COc1ccc(-n2nc(COC(=O)N(O)C(C)C)c(Br)c2-c2ccc(C)cc2)cc1 [1-O]
1.8 µM	COc1ccc(-n2nc(COC(=O)N(C)O)c(Cl)c2-c2ccc(C)cc2)cc1 [1-Q]
4.2 µM	COc1ccc(-n2nc(CCOC(=O)N(C)O)c(Cl)c2-c2ccc(Cl)cc2)cc1 [2-C]
0.92 µM	COc1ccc(-n2nc(CCOC(=O)N(C)O)cc2-c2ccc(C)cc2)cc1 [2-G]
1.48 µM	COc1ccc(-n2nc(CCOC(=O)N(O)C(C)C)cc2-c2ccc(C)cc2)cc1 [2-H]
18.7 µM	COc1ccc(-n2nc(CCOC(=O)NO)c(Br)c2-c2ccc(C)cc2)cc1 [2-K]
1.2 µM	COc1ccc(-n2nc(CCOC(=O)N(C)O)c(Br)c2-c2ccc(C)cc2)cc1 [2-L]
30 µM	COc1ccc(-n2nc(CCCOC(=O)NO)cc2-c2ccc(Cl)cc2)cc1 [3-A]
1.97 µM	COc1ccc(-n2nc(CCCOC(=O)N(O)C(C)C)cc2-c2ccc(Cl)cc2)cc1 [3-C]
1.5 µM	COc1ccc(-n2nc(CCCOC(=O)N(O)C(C)C)c(Br)c2-c2ccc(Cl)cc2)cc1 [3-G]
